Key:
[1] = tested on: Diabrotica balteata larvae; assay: Effect on Diabrotica balteata larvae (Example B2); type: in vivo; conditions: corn seedlings sprayed with 400 ppm, second stage larvae, six days later
Experimental: Example B2: Effect on Diabrotica balteata larvae
Corn seedlings are sprayed with an aqueous emulsion containing 400 ppm of active ingredient. After drying of the spray deposit, the corn seedlings are inoculated with 10 second stage larvae of Diabrotica balteata and transferred to a plastic container. Six days later they are evaluated. The percentage reduction of the population (% response) is determined by comparing the number of dead larvae on the treated plants with those on the untreated plants.

[2] = tested on: Dermanyssus gallinae; assay: In vitro effect on Dermanyssus gallinae (Example B10); conditions: ranking among test substances
Experimental: Example B10: In vitro effect on Dermanyssus gallinae
Ten engorged female mites of the genus Dermanyssus gallinae fixed on a plastic adhesive film are brought into contact with 50 μl of an aqueous suspension or emulsion of the test substance. The test is carried out with concentrations of 32, 10, 3.2, 1.0, 0.32 to 0.0001 ppm. After drying, the film is stuck onto a glass disc. This creates a kind of air bubble around each mite, the lower surface of which is formed by the glass disc and the upper surface by a bulging of the adhesive film. This bubble contains sufficient air for the mite to avoid suffocating. After 5 days, the effect of the test substance is evaluated with the aid of a stereomicroscope by assessing the effect on mortality, egg deposition, egg quality, hatching rate, pupation rate, and development of protonymphs according to the following 4 criteria:
1. if 9 to 10 mites are dead, this indicates a lethal effect;
3. if 2 or more mites survive and produce eggs, but no larvae hatch from these eggs and no protonymphs develop, this indicates a development-inhibiting effect;
4. if 2 or more mites survive and lay the usual number of normal eggs, from which larvae hatch and develop into protonymphs, this indicates no activity.

[3] = tested on: Heliothis virescens; assay: Ovicidal effect on Heliothis virescens (Example B1); type: in vivo; conditions: eggs immersed in 400 ppm test solution, after 6 days, vs untreated controls
Experimental: Example B1: Ovicidal effect on Heliothis virescens
Eggs of Heliothis virescens laid on filter paper are immersed for a short time in an acetonic aqueous test solution containing 400 ppm of the active ingredient to be tested. After drying of the test solution, the eggs are incubated in Petri dishes. After 6 days, the percentage hatching rate of the eggs is compared with that for untreated controls (% reduction in hatching rate).

[4] = tested on: Boophilus microplus; assay: In vitro effect on Boophilus microplus (Example B9); conditions: ranking among test substances
Experimental: Example B9: In vitro effect on Boophilus microplus
Four test series each of 10 engorged female adults of Boophilus microplus are stuck to a plastic plate and covered for 1 hour with a wad of cottonwool soaked with an aqueous suspension or emulsion of the test substance. The test is carried out with concentrations of 100, 32, 10, 3.2, 1.0 and 0.32 ppm. The wad of cottonwool is then removed, and the ticks are incubated for 28 days for the eggs to be laid. The effect on Boophilus microplus is assessed according to the following 5 criteria:
1. Number of dead females (immobile with black discoloration) before egg deposition;
2. Number of ticks surviving for several days, but no eggs laid;
3. Number of cases in which eggs are laid, but nothing is hatched;
5. […] The compounds of formula (I) in this test show the effect described under point 4. […] Even at 1 ppm, a 60 to 90% suppression of the hatching rate is observed.
This test is carried out with both the BIARRA and the ULAM strain, and the results in both cases are identical.

[5] = tested on: Tetranychus urticae; assay: Ovicidal effect on Tetranychus urticae (Example B7); type: in vivo; conditions: bean plants colonized with eggs sprayed with 400 ppm, 6 days at 25° C.
Experimental: Example B7: Ovicidal effect on Tetranychus urticae
(§1) Young bean plants are inoculated with females of Tetranychus urticae, which are removed again after 24 hours. The plants colonized with eggs are sprayed with an aqueous emulsion containing 400 ppm of active ingredient. The plants are incubated for 6 days at 25° C. and then evaluated. The percentage reduction of the population (% response) is determined by comparing the number of dead eggs, larvae, and adults on the treated plants with those on the untreated plants.

[6] = tested on: Heliothis virescens caterpillars; assay: Effect on Heliothis virescens caterpillars (Example B4); type: in vivo; conditions: soya plants sprayed with 400 ppm, first stage caterpillars, six days later
Experimental: Example B4: Effect on Heliothis virescens caterpillars
(§2) Young soya plants are sprayed with an aqueous emulsion containing 400 ppm of active ingredient. After drying of the spray deposit, the soya plants are inoculated with 10 first stage caterpillars of Heliothis virescens and transferred to a plastic container. Six days later they are evaluated. The percentage reduction of the population (% response) is determined by comparing the number of dead caterpillars and the extent of feeding damage on the treated plants with those on the untreated plants.

[7] = tested on: Panonychus ulmi (resistant to organophosphates und carbaryl); assay: Effect on Panonychus ulmi (Example B8); type: in vivo; conditions: apple seedlings sprayed with 400 ppm, after 14 days
Experimental: Example B8: Effect on Panonychus ulmi (resistant to organophosphates und carbaryl)
Apple seedlings are inoculated with adult females of Panonychus ulmi. After seven days, the infected plants are sprayed with an aqueous emulsion containing 400 ppm of the test compound until they are dripping wet, and cultivated in the greenhouse. After 14 days, they are evaluated. The percentage reduction of the population (% response) is determined by comparing the number of dead mites on the treated plants with those on the untreated plants.

[8] = tested on: Heliothis virescens; assay: Ovocidal/larvicidal effect on Heliothis virescens (Example B6); type: in vivo; conditions: eggs on cotton sprayed with 400 ppm, after 8 days
Source text: Example B6: Ovocidal/larvicidal effect on Heliothis virescens
Eggs of Heliothis virescens laid on cotton are sprayed with an aqueous emulsion containing 400 ppm of active ingredient. After 8 days, the percentage hatching rate of the eggs and the survival rate of the caterpillars are compared with those for untreated controls (% reduction of population)

[9] = tested on: Plutella xylostella caterpillars; assay: Effect on Plutella xylostella caterpillars (Example B5); type: in vivo; conditions: cabbage plants sprayed with 400 ppm, third stage caterpillars, three days later
Experimental: Example B5: Effect on Plutella xylostella caterpillars
as §2, with “cabbage” for “soya”, “third” for “first”, “Plutella xylostella” for “Heliothis virescens”, “Three” for “Six”

[10] = tested on: Tetranychus urticae; assay: Effect on Tetranychus urticae (Example B3); type: in vivo; conditions: bean plants, mixed population, sprayed with 400 ppm, 6 days at 25° C.
Experimental: Example B3: Effect on Tetranychus urticae
as §1, with “a mixed population” for “females”, “urticae and, one day later,” for “urticae, which are removed again after 24 hours. The plants colonized with eggs”, “plants. The instantly claimed compounds show good efficacy against Tetranychus urticae in this test.” for “plants.”

**Q.** How did the “percentage reduction of the population (% response)” value (“percentage reduction … (% response)” below) [1] turn out when `Fc1cccc(F)c1C1=NC(c2ccc(-c3ccc(C(F)(F)F)cc3)cc2)CO1` (stereo not shown) [Example H1-5, 2-(2,6-Difluorophenyl)-4-(4′-trifluoromethylbiphenyl-4-yl)-4,5-dihydro-oxazole] was run?
**A.** more than 80%

**Q.** And the “activity compared with the other test substances” value [2]?
**A.** most active test substance

**Q.** What about the “% reduction in hatching rate” value [3] of the same molecule?
**A.** more than 80%

**Q.** And the “activity compared with the other test substances” value [4]?
**A.** most active test substance

**Q.** What about the “percentage reduction … (% response)” value [5] of the same molecule?
**A.** more than 80%

**Q.** What about the “percentage reduction … (% response)” value [6] of the same molecule?
**A.** more than 80%

**Q.** What about the “percentage reduction … (% response)” value [7] of the same molecule?
**A.** more than 80%

**Q.** And the “% reduction of population (hatching rate of eggs and survival rate of caterpillars)” value [8]?
**A.** more than 80%

**Q.** What about the “percentage reduction … (% response)” value [9] of the same molecule?
**A.** more than 80%

**Q.** What about the “percentage reduction … (% response)” value [10] of the same molecule?
**A.** more than 80%
